Reference: US20140200137A1, “TREATMENT OF STORED TUBERS WITH COMPOSITIONS OF ALKYL NAPHTHALENES AND HIGHER ALCOHOLS” (1,4 Group, Inc., priority 2013, published 2014)

What was measured:
[1] = system: existing sprouts on post-dormant potatoes with peeps and sprouts extant; test: Comparison of sprout suppressing chemicals applied by thermofogging (Example VII); format: in vivo; settings: for Burn “old”: effect upon old sprouts, up to nine months old; for Burn “old” / Burn “new”: thermofogging at comparable dosages; for Burn “new”: newly emerged sprouts and peeps, generally less than a month
Excerpt: Various sprout suppressing chemicals were compared for their ability to suppress existing sprouts on post-dormant potatoes with peeps and sprouts extant.
In the above table “Burn old” refers to the effect upon old sprouts, which included sprouts up to nine months old, these being generally more difficult to desiccate, while “burn new” refers to newly emerged sprouts and peeps, generally less than a month or so in existence.

[2] = system: stored potatoes with white peeps showing from the eyes; test: Thermofogging of 1-nonanol on bulk stored potatoes with white peeps (Example II); format: in vivo; settings: thermofogged at about 500° F., 8 ml for 2 kg of potatoes
Method: Stored potatoes in bulk storage were treated with 1-nonanol (n-nonyl alcohol) via a thermofogger to determine sprout inhibition. The thermofogger was operated at an aerosol chamber temperature of about 500° F. A good stable aerosol was produced. The alcohol was applied at a dosage of 8 ml for 2 kg of potatoes. The system was open so that the actual dosage reaching the potatoes was considerably less than the fogged amount. In a first bulk storage, the potatoes had white “peeps” showing from the eyes.

[3] = system: potatoes with sprouts averaging in excess of about 2 cm, some up to 8 cm or more; test: Thermofogging on potatoes with very long sprouts (Examples III and IV); format: in vivo; settings: for kill of large sprouts: full strength
Method: In another test, the potatoes were treated with 1-nonanol at the same fogging temperature and dosage for the same period of time to achieve the same application dosage as in Example II. The potatoes in this storage had sprouts averaging in excess of about 2 cm in length. In this experiment, potatoes with very long sprouts, some up to 8 cm or more, were treated 1, 2, and 4 times sequentially with full strength nonanol. This “spray-paint” method was used to try to bring the total amount (rate) of nonanol up to a level capable of killing large sprouts as well as peeps . . . a necessity in commercial settings where sprouts of all sizes exist. […] While this was a small scale test, a whole storage full of potatoes in this condition would likely lead to secondary decays.
The results of Example III led to another experiment where nonanol and DMN were applied.

peeps and sprouts = test: Fogging of 1-nonanol compared with clove oil in burning peeps and sprouts (Example V); format: in vivo, potatoes; settings: similar dosages
[4] = system: peeps and sprouts of stored potatoes; test: General observations on treatment of stored potatoes with higher alcohols and 1,4-DMN; format: in vivo; settings: 24 hours after treatment all peeps and sprouts are burned
Excerpt: Higher alcohols, such as 1-octanol and 1-nonanol, are miscible with 1,4-DMN.
It has been observed that the dormancy-like effect produced upon stored potatoes by 1,4-DMN remains, at least to some degree, even as the residue of 1,4-DMN becomes undetectable. Thus, by proper timing of the last treatment of stored potatoes with 1,4-DMN and a subsequent treatment with 1-octanol, 1-nonanol or 1-hexanol, alcohols which are on the GRAS list, both the washed potatoes and any discharged wash water will have no harmful chemicals present. The action of higher alcohols, such as 1-octanol, 1-nonanol and 1-hexanol, on peeps and sprouts is rapid, so that 24 hours after treatment all peeps and sprouts are “burned.”

potatoes [5] = test: Thermofogging of 1-octanol on cold and warmer potatoes, damage to skin and flesh (Example IX); format: in vivo
Method: The 1-octanol was applied via an electrically […] thermofogger at a fog temperature within the fogger of about 500° F. to obtain a stable aerosol. The potatoes were examined about 24 hours after treatment. […] The potatoes were cut open at the dark spots. Damage to the flesh of the potatoes existed to a depth of about 5 mm to 25 mm. Potato flesh was otherwise undamaged except under the dark spots.

sprouts on potatoes = test: Mixtures of 1,4-DMN with octanol at various volumetric ratios, burn of sprouts (Example VIII); format: in vivo; set-up: key: +++: Excellent effect; ++: Very good effect; +: Good effect; —: Negligible effect; settings: total dosage of each mixture constant
Excerpt: All mixtures provided a more rapid burn of sprouts compared with an equal dosage of octanol or 1,4-DMN alone. The 7:1 ratio of octanol to DMN gave the best results in terms of length of non-sprouting condition before nascent sprouts again appeared.

potatoes [6] = settings: in vivo; cited from earlier work

SMILES: Cc1ccc(C)c2ccccc12 [1,4-DMN, 1,4 dimethyl naphthalene]
- Burn “old” [1]: +
- Burn “new” [1]: +

SMILES: CCCCCCCCCCO [1-Decanol]
- Burn “old” [1]: ++
- Burn “new” [1]: ++

SMILES: CCCCCCCCCO [1-Nonanol, 1-nonanol]
- Burn “old” [1]: +++
- desiccation of existing peeps and sprouts, ranking in the test ([1]; in vivo): most effectively desiccated existing peeps and sprouts
- Burn “new” [1]: +++
- damage to potato flesh adjacent the eyes [2]: without any damage to potato flesh
- effect on white peeps ([2]; open system): burned to a dark color and were inactivated
- negative side effect observed ([3]; four sequential applications): wet, slimy, sprout rot
- kill of large sprouts ([3]; four sequential applications): completely killed
- kill of large sprouts ([3]; single or double applications): didn't reach a level of nonanol high enough to completely kill these sized sprouts
- effectiveness in burning peeps and sprouts relative to clove oil (peeps and sprouts): about four times as effective as clove oil
- action on peeps and sprouts [4]: rapid

SMILES: CCCCCCCCO [1-Octanol, 1-octanol]
- Burn “old” [1]: ++
- Burn “new” [1]: +++
- depth of damage to the flesh under the dark spots (potatoes [5]; potato, in vivo, 24 h): 5-25 mm
- damage to potato skin (potatoes [5]; potatoes at about 36° F., fog about 500° F., examined about 24 hours after treatment): large dark damaged spots
- injury to potato skin or flesh (potatoes [5]; potatoes held at 53° F., similar dosage, fogging temperature and rate): did not show injury to the potato skin or to its flesh
- action on peeps and sprouts [4]: rapid

SMILES: CCCCCCCCO [1:0, octanol]
- Length of Burn (sprouts on potatoes): +++
- Rapid Burn (sprouts on potatoes): ++

SMILES: CCCCC(CC)CO (centres unmarked) [2-ethyl-hexan-1-01]
- results among alcohols tested by Burton (potatoes [6]): Worst results

SMILES: CCCCCOC(C)=O [AmylAcetate, amyl acetate]
- Burn “new” [1]: ++

SMILES: CCCCCCCCCCCCO [Dodecanol]
- Burn “old” [1]: −\+
- Burn “new” [1]: −

SMILES: CCCCCCO [Hexanol, 1-hexanol]
- Burn “old” [1]: +
- Burn “new” [1]: ++
- action on peeps and sprouts [4]: rapid

SMILES: CCCCCO [amyl, amyl alcohol]
- results among alcohols tested by Burton (potatoes [6]): Best results

SMILES: CCCCCCO [n-hexyl, n-hexyl alcohol]
- results among alcohols tested by Burton (potatoes [6]): Worst results

SMILES: CCCCCCCCCO [nonyl, nonyl alcohol]
- results among alcohols tested by Burton (potatoes [6]): Best results
